# Literature values in US9145372B2, “Pyridazine derivatives, compositions and methods for treating cognitive impairment” (AGENEBIO, INC., priority 2010, dated 2015).
# Target: T1, α5-containing GABAA R (Homo sapiens, UniProt P18507+P31644)
# T1 sequence (P31644 32-462): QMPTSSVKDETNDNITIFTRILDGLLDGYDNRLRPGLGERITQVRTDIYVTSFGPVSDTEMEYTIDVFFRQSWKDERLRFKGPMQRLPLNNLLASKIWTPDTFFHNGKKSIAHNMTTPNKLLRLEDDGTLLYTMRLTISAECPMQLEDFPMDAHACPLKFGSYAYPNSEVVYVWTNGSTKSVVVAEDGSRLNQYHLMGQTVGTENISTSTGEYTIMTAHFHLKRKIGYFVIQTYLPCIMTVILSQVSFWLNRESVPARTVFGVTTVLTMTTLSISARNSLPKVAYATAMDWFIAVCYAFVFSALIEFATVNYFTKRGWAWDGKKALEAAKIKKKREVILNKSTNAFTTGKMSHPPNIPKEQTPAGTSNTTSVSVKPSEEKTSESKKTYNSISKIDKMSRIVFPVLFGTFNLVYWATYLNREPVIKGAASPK
# T1 sequence (P28472 26-473 partner): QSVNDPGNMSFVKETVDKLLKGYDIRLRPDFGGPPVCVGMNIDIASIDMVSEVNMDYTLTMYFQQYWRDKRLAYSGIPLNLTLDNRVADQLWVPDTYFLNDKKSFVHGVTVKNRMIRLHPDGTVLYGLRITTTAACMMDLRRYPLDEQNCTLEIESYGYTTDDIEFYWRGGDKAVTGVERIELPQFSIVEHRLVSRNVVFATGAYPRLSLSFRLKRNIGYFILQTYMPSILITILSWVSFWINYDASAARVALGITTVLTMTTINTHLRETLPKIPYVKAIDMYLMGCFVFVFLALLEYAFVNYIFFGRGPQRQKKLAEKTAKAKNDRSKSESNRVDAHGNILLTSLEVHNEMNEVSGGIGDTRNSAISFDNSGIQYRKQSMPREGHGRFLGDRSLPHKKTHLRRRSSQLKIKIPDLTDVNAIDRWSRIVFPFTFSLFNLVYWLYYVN
# T1 sequence (P18507 40-467 limits assumed): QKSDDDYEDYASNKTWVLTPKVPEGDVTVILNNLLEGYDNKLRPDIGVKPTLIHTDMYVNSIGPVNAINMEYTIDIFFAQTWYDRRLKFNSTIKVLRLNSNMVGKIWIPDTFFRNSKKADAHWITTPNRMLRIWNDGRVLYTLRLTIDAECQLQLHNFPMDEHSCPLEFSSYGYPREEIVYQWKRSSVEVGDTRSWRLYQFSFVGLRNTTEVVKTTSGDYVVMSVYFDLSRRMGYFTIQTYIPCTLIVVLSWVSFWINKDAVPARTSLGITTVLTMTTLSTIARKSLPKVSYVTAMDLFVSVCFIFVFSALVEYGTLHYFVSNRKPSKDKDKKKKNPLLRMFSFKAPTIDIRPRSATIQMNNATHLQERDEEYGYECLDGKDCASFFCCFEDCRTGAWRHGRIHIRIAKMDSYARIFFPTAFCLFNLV
# Settings: at GABA EC20; van Niel et al.; cited from earlier work
smiles,measurement,value
"COC(=O)c1c(-c2ccccc2)cnnc1-c1ccccc1 [methyl 3,5-diphenylpyridazine-4-carboxylate]",α5 in vitro efficacy (EC20),+27
